Test results: patent publication US8138175B2, “Heterocyclyl compounds” (Hoffmann-La Roche Inc., priority 2008, dated 2012)

Target: T1, human chemokine receptor 2 isoform B (Homo sapiens, UniProt P41597)
T1 construct: host or cells: CHOK1-CCR2B-A5 (CHO-K1) cells
T1 sequence (P41597 1-360 isoform P41597-2): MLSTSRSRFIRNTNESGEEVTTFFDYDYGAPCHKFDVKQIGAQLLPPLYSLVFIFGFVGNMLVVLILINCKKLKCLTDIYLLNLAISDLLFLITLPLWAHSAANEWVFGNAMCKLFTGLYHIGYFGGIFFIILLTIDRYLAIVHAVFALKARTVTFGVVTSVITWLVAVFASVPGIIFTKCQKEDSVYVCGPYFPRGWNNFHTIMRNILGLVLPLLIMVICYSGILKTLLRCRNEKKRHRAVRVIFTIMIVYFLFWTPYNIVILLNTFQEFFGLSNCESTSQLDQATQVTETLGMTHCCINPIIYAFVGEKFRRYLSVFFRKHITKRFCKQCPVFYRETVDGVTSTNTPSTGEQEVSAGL
Experiment: Calcium mobilization assay
Type: cell-based
Conditions: Ca mobilization assay for CCR2; CHOK1-CCR2B-A5 cells; antagonist activity against 20 nM MCP-1; FLIPR, Fluo-4
Experimental: Calcium Mobilization Assay
CHOK1-CCR2B-A5 cells (from Euroscreen) stably overexpressing the human chemokine receptor 2 isoform B were cultured in Nutrient Hams F12 medium supplemented with 5% FBS, 100 U/ml penicillin, 100 μg/ml streptomycin, 400 μg/ml G418 and 5 μg/ml puromycin.
For the assay cells were grown overnight in 384-well black clear flat bottom polystyrene plates (Costar) at 37° C. at 5% CO2. After washing with DMEM, 20 mM Hepes, 2.5 mM probenecid, 0.1% BSA (DMEM assay buffer) cells were loaded with 4 μM Fluo-4 in the same DMEM assay buffer for 2 hours at 30° C. Excess dye was removed and cells were washed with DMEM assay buffer. 384-well compound plates were prepared with DMEM assay buffer/0.5% dimethyl sulfoxide with or without various concentrations of test compounds. Usually compounds were tested for agonist and antagonist activity.
Test compounds were added to the assay plate and agonist activity was monitored as fluorescence for 80 seconds with a FLIPR (488 nm excitation; 510-570 nm emission; Molecular Devices). After 20-30 min. of incubation at 30° C., 20 nM MCP-1 (R&D; Roche) was added and fluorescence was monitored again for 80 seconds. Increases in intracellular calcium are reported as maximum fluorescence after agonist exposure minus basal fluorescence before exposure. Antagonist activity is indicated as inhibitor concentration required for 50% inhibition of specific calcium increases.

| Compound | IC50 |
| --- | --- |
| C[C@H]1C(=O)N(CCCN2CCC3(CC3)[C@H](O)C2)CCN1c1ccc(F)c(OC(F)(F)F)c1 [Example 86, (S)-4-(4-Fluoro-3-trifluoromethoxy-phenyl)-1-[3-((S)-4-hydroxy-6-aza-spiro[2.5]oct-6-yl)-propyl]-3-methyl-piperazin-2-one] | 33 nM |
| C[C@@H]1C(=O)N(CCCN2CCC3(CC3)[C@H](O)C2)CCN1c1ccc(C(F)(F)F)c(F)c1 [Example 103, (R)-4-(3-fluoro-4-trifluoromethyl-phenyl)-1-[3-((S)-4-hydroxy-6-aza-spiro[2.5]oct-6-yl)-propyl]-3-methyl-piperazin-2-one] | 92 nM |
| CC1C(=O)N(CCCN2CCC3(CC3)[C@H](O)C2)CCN1c1cccc(I)c1 (stereo partly drawn) [Example 89, 1-[3-((S)-4-Hydroxy-6-aza-spiro[2.5]oct-6-yl)-propyl]-4-(3-iodo-phenyl)-3-methyl-piperazin-2-one] | 35 nM |
| C[C@H]1C(=O)N(CCCN2CCC3(CC3)[C@H](O)C2)CCN1c1ccc(F)c(C(F)(F)F)c1 [Example 78, (S)-4-(4-Fluoro-3-trifluoromethyl-phenyl)-1-[3-((S)-4-hydroxy-6-aza-spiro[2.5]oct-6-yl)-propyl]-3-methyl-piperazin-2-one] | 13 nM |
| COC[C@H](CCN1CCC2(CC2)[C@H](O)C1)N1CCN(c2cccc(C(F)(F)F)c2)CCC1=O [Example 23, 4-[(S)-3-((S)-4-Hydroxy-6-aza-spiro[2.5]oct-6-yl)-1-methoxymethyl-propyl]-1-(3-trifluoromethyl-phenyl)-[4]diazepan-5-one] | 10 nM |
| O=C1CCN(c2cccc(C(F)(F)F)c2)CCN1C(CO)CCN1CCC2(CC2)[C@H](O)C1 (stereo partly drawn) [Example 16, 4-[(R,S)-3-((S)-4-Hydroxy-6-aza-spiro[2.5]oct-6-yl)-1-hydroxymethyl-propyl]-1-(3-trifluoromethyl-phenyl)-[1,4]diazepan-5-one] | 10 nM |
| CC1C(=O)N(C(CO)CCN2CCC3(CC3)[C@H](O)C2)CCN1c1cccc(OC(F)(F)F)c1 (stereo partly drawn) [Example 49, 1-[3-((S)-4-hydroxy-6-aza-spiro[2.5]oct-6-yl)-1-hydroxymethyl-propyl]-3-methyl-4-(3-trifluoromethoxy-phenyl)-piperazin-2-one] | 5 nM |
| C[C@H]1C(=O)N(CCCN2CCC3(CC3)[C@H](O)C2)CCN1c1ccc(Cl)c(OC(F)(F)F)c1 [Example 84, (S)-4-(4-Chloro-3-trifluoromethoxy-phenyl)-1-[3-((S)-4-hydroxy-6-aza-spiro[2.5]oct-6-yl)-propyl]-3-methyl-piperazin-2-one] | 15 nM |
| CC1C(=O)N(CCCN2CCCCC2)CCN1c1cccc(C(F)(F)F)c1 (stereo not drawn) [Example 51, 3-Methyl-1-(3-piperidin-1-yl-propyl)-4-(3-trifluoromethyl-phenyl)-piperazin-2-one] | 190 nM |
| C[C@H]1C(=O)N(CCCN2CCC3(CC3)[C@H](O)C2)CCN1c1ccc(F)c(Cl)c1 [Example 79, (S)-4-(3-Chloro-4-fluoro-phenyl)-1-[3-((S)-4-hydroxy-6-aza-spiro[2.5]oct-6-yl)-propyl]-3-methyl-piperazin-2-one] | 29 nM |
| O=C1CCN(c2cccc(C(F)(F)F)c2)CCN1[C@@H](CO)CCN1CCC2(CC2)[C@H](O)C1 [Example 9, 4-[(R)-3-((S)-4-Hydroxy-6-aza-spiro[2.5]oct-6-yl)-1-hydroxymethyl-propyl]-1-(3-trifluoromethyl-phenyl)-[1,4]diazepan-5-one] | 180 nM |
| C[C@H]1C(=O)N(CCCN2CCC3(CC3)[C@H](O)C2)CCN1c1ccc(Cl)c(C(F)(F)F)c1 [Example 76, (S)-4-(4-Chloro-3-trifluoromethyl-phenyl)-1-[3-((S)-4-hydroxy-6-aza-spiro[2.5]oct-6-yl)-propyl]-3-methyl-piperazin-2-one] | 7 nM |
| CC1C(=O)N(C(CCN2CCC3(CC3)[C@H](O)C2)C(=O)N(C)C)CCN1c1cccc(OC(F)(F)F)c1 (stereo partly drawn) [Example 50, 4-((S)-4-Hydroxy-6-aza-spiro[2.5]oct-6-yl)-N,N-dimethyl-2-[3-methyl-2-oxo-4-(3-trifluoromethoxy-phenyl)-piperazin-1-yl]-butyramide] | 30 nM |
| C[C@@H]1C(=O)N(C[C@H](O)CN2CCC3(CC3)[C@H](O)C2)CCN1c1ccc(Cl)c(Cl)c1 [Example 100, (R)-4-(3,4-Dichloro-phenyl)-1-[(R)-2-hydroxy-3-((S)-4-hydroxy-6-aza-spiro[2.5]oct-6-yl)-propyl]-3-methyl-piperazin-2-one] | 334 nM |
| O=C1CCN(c2cccc(C(F)(F)F)c2)CCN1C(CO)CCCN1CCC2(CC2)[C@H](O)C1 (stereo partly drawn) [Example 27, 4-[(R,S)-4-((S)-4-Hydroxy-6-aza-spiro[2.5]oct-6-yl)-1-hydroxymethyl-butyl]-1-(3-trifluoromethyl-phenyl)-[1,4]diazepan-5-one] | 70 nM |
| CC1C(=O)N(C(CCN2CCC3(CC3)[C@H](O)C2)C(=O)O)CCN1c1cccc(OC(F)(F)F)c1 (stereo partly drawn) [Example 48, 4-((S)-4-Hydroxy-6-aza-spiro[2.5]oct-6-yl)-2-[3-methyl-2-oxo-4-(3-trifluoromethoxy-phenyl)-piperazin-1-yl]-butyric acid] | 30 nM |
| CN(CCO)C(=O)[C@H](CCN1CCC2(CC2)[C@H](O)C1)N1CCN(c2ccc(Cl)c(Cl)c2)CCC1=O [Example 61, (S)-2-[4-(3,4-Dichloro-phenyl)-7-oxo-[1,4]diazepan-1-yl]-4-((S)-4-hydroxy-6-aza-spiro[2.5]oct-6-yl)-N-(2-hydroxy-ethyl)-N-methyl-butyramide] | 76 nM |
| O=C1CCN(c2ccc(Cl)c(Cl)c2)CCN1[C@H](CO)CCN1CCC2(CC2)[C@H](O)C1 [Example 2, 1-(3,4-Dichloro-phenyl)-4-[(S)-3-((S)-4-hydroxy-6-aza-spiro[2.5]oct-6-yl)-1-hydroxymethyl-propyl]-[1,4]diazepan-5-one] | 10 nM |
| CC1C(=O)N(CCCN2CCCCC2)CCN1c1ccc(Cl)c(Cl)c1 (stereo not drawn) [Example 71, 4-(3,4-Dichloro-phenyl)-3-methyl-1-(3-piperidin-1-yl-propyl)-piperazin-2-one] | 226 nM |
| COC(=O)[C@H](CCN1CCC2(CC2)[C@H](O)C1)N1CCN(c2ccc(C(F)(F)F)cc2)CCC1=O [Example 19, (S)-4-((S)-4-Hydroxy-6-aza-spiro[2.5]oct-6-yl)-2-[7-oxo-4-(4-trifluoromethyl-phenyl)-[1,4]diazepan-1-yl]-butyric acid methyl ester] | 410 nM |
| CN(C)C(=O)C(CCCN1CCC(C)(O)CC1)N1CCN(c2cccc(C(F)(F)F)c2)CCC1=O (racemic) [Example 25, (rac)-5-(4-Hydroxy-4-methyl-piperidin-1-yl)-2-[7-oxo-4-(3-trifluoromethyl-phenyl)-[1,4]diazepan-1-yl]-pentanoic acid dimethylamide] | 200 nM |
| COC(=O)[C@H](CCN1CCC2(CC2)[C@H](O)C1)N1CC(C)N(c2ccc(Cl)c(Cl)c2)CCC1=O (mixture of isomers) [Example 67, (S)-2-[(R,S)-4-(3,4-dichloro-phenyl)-3-methyl-7-oxo-[1,4]diazepan-1-yl]-4-((S)-4-hydroxy-6-aza-spiro[2.5]oct-6-yl)-butyric acid methyl ester] | 52 nM |
| CC[C@@H]1C(=O)N(CCCN2CCC3(CC3)[C@H](O)C2)CCN1c1ccc(Cl)c(Cl)c1 [Example 88, (R)-4-(3,4-dichloro-phenyl)-3-ethyl-1-[3-((S)-4-hydroxy-6-aza-spiro[2.5]oct-6-yl)-propyl]-piperazin-2-one] | 325 nM |
| CC[C@H]1C(=O)N(CCCN2CCC3(CC3)[C@H](O)C2)CCN1c1ccc(Cl)c(Cl)c1 [Example 87, (S)-4-(3,4-Dichloro-phenyl)-3-ethyl-1-[3-((S)-4-hydroxy-6-aza-spiro[2.5]oct-6-yl)-propyl]-piperazin-2-one] | 53 nM |
| CN(C)C(=O)C(CCN1CCC2(CC2)[C@H](O)C1)N1CCN(c2cccc(C(F)(F)F)c2)CCC1=O (stereo partly drawn) [Example 17, (R,S)-4-((S)-4-Hydroxy-6-aza-spiro[2.5]oct-6-yl)-N,N-dimethyl-2-[7-oxo-4-(3-trifluoromethyl-phenyl)-[1,4]diazepan-1-yl]-butyramide] | 140 nM |
| O=C1CCN(c2cccc(C(F)(F)F)c2)CCN1[C@H](CO)CCN1CCC2(CC2)[C@H](O)C1 [Example 6, 4-[(S)-3-((S)-4-Hydroxy-6-aza-spiro[2.5]oct-6-yl)-1-hydroxymethyl-propyl]-1-(3-trifluoromethyl-phenyl)-[1,4]diazepan-5-one] | 10 nM |
| O=C1CCN(c2cccc(Cl)c2)CCN1[C@H](CO)CCN1CCC2(CC2)[C@H](O)C1 [Example 4, 1-(3-Chloro-phenyl)-4-[(S)-3-((S)-4-hydroxy-6-aza-spiro[2.5]oct-6-yl)-1-hydroxymethyl-propyl]-[1,4]diazepan-5-one] | 60 nM |
